According to patent US20250163066A1, “PROTACs of MALT1” (TEGID THERAPEUTICS, INC., priority 2022, published 2025):

What follows are compounds tested against MALT1 (Homo sapiens (Human), UniProt Q9UDY8) (assay: MALT1 enzymatic activity inhibition (fluorescence, Ac-LRSR-AMC substrate)). Settings: recombinant MALT1 1.5 ng/μl, Ac-LRSR-AMC 1 μM.
MALT1, sequence (Q9UDY8 whole entry): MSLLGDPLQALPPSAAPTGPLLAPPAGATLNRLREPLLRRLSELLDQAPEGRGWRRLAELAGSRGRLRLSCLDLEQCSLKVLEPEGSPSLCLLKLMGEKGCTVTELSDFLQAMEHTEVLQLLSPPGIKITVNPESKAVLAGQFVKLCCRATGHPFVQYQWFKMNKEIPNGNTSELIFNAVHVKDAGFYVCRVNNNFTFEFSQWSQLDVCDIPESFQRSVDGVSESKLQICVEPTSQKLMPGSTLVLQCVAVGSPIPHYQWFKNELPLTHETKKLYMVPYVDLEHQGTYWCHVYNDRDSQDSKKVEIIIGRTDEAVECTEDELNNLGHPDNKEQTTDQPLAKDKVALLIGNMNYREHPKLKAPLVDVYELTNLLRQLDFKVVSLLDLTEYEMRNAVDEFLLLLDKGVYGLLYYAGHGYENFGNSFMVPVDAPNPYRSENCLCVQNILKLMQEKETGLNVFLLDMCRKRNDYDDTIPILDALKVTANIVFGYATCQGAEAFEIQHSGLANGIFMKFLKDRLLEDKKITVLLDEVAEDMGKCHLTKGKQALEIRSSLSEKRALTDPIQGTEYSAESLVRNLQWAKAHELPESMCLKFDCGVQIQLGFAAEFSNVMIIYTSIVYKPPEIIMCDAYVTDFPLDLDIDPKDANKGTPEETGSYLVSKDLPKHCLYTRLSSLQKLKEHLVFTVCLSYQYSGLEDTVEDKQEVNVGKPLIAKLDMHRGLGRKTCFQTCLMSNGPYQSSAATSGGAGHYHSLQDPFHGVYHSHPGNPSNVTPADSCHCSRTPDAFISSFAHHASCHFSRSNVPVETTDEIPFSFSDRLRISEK
Type: biochemical
Description: Compound activity was determined using recombinant MALT1 protein (Creative Biomart, Cat #MALT1-28H) and Ac-LRSR-AMC Substrate in an in vitro enzymatic reaction. The enzymatic assay used to determine activity was a Fluorescence assay using a Microplate Reader ClarioStar Plus. The enzymatic reaction was carried out in 1× Assay Buffer (50 mM HEPES pH 7.2-7.4, 100 mM NaCl, 900 mM Sodium citrate, 10 mM DTT). The compounds were dispensed on a 384-well Diamond Well Plate (Axygen, Cat #P-384-120SQ-C—S) using the Biomek FX liquid handling system at 100× solutions of compounds in DMSO. 2.5×MALT1 mix (final concentration 1.5 ng/μl of MALT1) was prepared in 1× Assay Buffer and 8 μl of mixture per well were added into 384w white Reaction Plates with NBS (Corning, Cat #4513). 8 μl of 1× Assay Buffer were used for negative control. Plates were centrifuged for 1 min at 200 g. Next, the compounds were added to Reaction plates using Biomek station via following steps: 1 μl of 100× compounds (in DMSO) was mixed thoroughly with 19 μl of 1× Assay Buffer, then 4 μl of this mixture were added to Reaction plates with 8 μl of MALT1 mix. Plates were centrifuged for 1 min at 200 g and incubated for 10 minutes at rt. Next, 2.5× Ac-LRSR-AMC mix (final concentration 1 μM of Ac-LRSR-AMC) was prepared in 1× Assay Buffer and 8 μl of mixture per well were added to Reaction Plates using Biomek station. Plates were centrifuged for 1 min at 200 g, then the fluorescence was measured immediately using Microplate Reader. Plates were incubated for 30 minutes at 37° C., then for 30 minutes at rt. The fluorescence was measured after the whole incubation using Microplate Reader. The reaction signal was calculated as the subtraction of the first data set values from the second. The % inhibition was then used to calculate the IC50 values. The results of this assay are shown in the Table A. The values of EC50 shown as a letters A-E, where: A≤0.2 μM; 0.2 μM<B≤0.5 μM; 0.5 μM<C≤1 μM; 1<D≤5 μM; E >5.
O=C(CCOCCN1CCN(c2ccc3c(c2)CN(C2CCC(=O)NC2=O)C3=O)CC1)NCCOc1ncc(Cl)cc1NC(=O)Nc1cnc2nccn2c1C1CCCC1 (stereo not drawn) [Compound 52, N-[2-[[5-chloro-3-[(5-cyclopentylimidazo[1,2-a]pyrimidin-6-yl)carbamoylamino]-2-pyridyl]oxy]ethyl]-3-[2-[4-[2-(2,6-dioxo-3-piperidyl)-1-oxo-isoindolin-5-yl]piperazin-1-yl]ethoxy]propanamide] showed an EC50 greater than 5 µM.
Cc1cc(NC(=O)Nc2cnc3ccnn3c2C2CCCO2)cnc1-c1noc(CCCC(=O)N2CCN(c3ccc4c(c3)CN(C3CCC(=O)NC3=O)C4=O)CC2)n1 (stereo not drawn) [Compound 58, 1-[6-[5-[4-[4-[2-(2,6-dioxo-3-piperidyl)-1-oxo-isoindolin-5-yl]piperazin-1-yl]-4-oxo-butyl]-1,2,4-oxadiazol-3-yl]-5-methyl-3-pyridyl]-3-(7-tetrahydrofuran-2-ylpyrazolo[1,5-a]pyrimidin-6-yl)urea] was tested, and the EC50 was no more than 0.2 µM.
Compound Cc1cc2ncc(NC(=O)Nc3cnc(-c4noc(CCCCC(=O)N5CCN(c6ccc7c(c6)CN(C6CCC(=O)NC6=O)C7=O)CC5)n4)c(C)c3)c(C3CCCC3)n2n1 (stereo not drawn) [Compound 59, 1-(7-cyclopentyl-2-methyl-pyrazolo[1,5-a]pyrimidin-6-yl)-3-[6-[5-[5-[4-[2-(2,6-dioxo-3-piperidyl)-1-oxo-isoindolin-5-yl]piperazin-1-yl]-5-oxo-pentyl]-1,2,4-oxadiazol-3-yl]-5-methyl-3-pyridyl]urea] has an EC50 of no more than 0.2 µM.
For Cc1cc(NC(=O)Nc2cnc3ccnn3c2C2CCCO2)cnc1-c1noc(CCC(=O)N2CCN(c3ccc4c(c3)CN(C3CCC(=O)NC3=O)C4=O)CC2)n1 (stereo not drawn) [Compound 60, 1-[6-[5-[3-[4-[2-(2,6-dioxo-3-piperidyl)-1-oxo-isoindolin-5-yl]piperazin-1-yl]-3-oxo-propyl]-1,2,4-oxadiazol-3-yl]-5-methyl-3-pyridyl]-3-(7-tetrahydrofuran-2-ylpyrazolo[1,5-a]pyrimidin-6-yl)urea], the EC50 was no more than 0.2 µM.
Cc1cc(NC(=O)Nc2cnc3ccnn3c2C2CCCC2)cnc1-c1noc(CCCCCC(=O)Nc2ccc3c(c2)CN(C2CCC(=O)NC2=O)C3=O)n1 (stereo not drawn) [Compound 61, 6-[3-[5-[(7-cyclopentylpyrazolo[1,5-a]pyrimidin-6-yl)carbamoylamino]-3-methyl-2-pyridyl]-1,2,4-oxadiazol-5-yl]-N-[2-(2,6-dioxo-3-piperidyl)-1-oxo-isoindolin-5-yl]hexanamide] gave an EC50 of no more than 0.2 µM.
Compound Cc1cc(NC(=O)Nc2cnc3ccnn3c2C2CCCO2)cnc1-c1noc(CCCN2CCN(c3ccc4c(c3)CN(C3CCC(=O)NC3=O)C4=O)CC2)n1 (stereo not drawn) [Compound 62, 1-[6-[5-[3-[4-[2-(2,6-dioxo-3-piperidyl)-1-oxo-isoindolin-5-yl]piperazin-1-yl]propyl]-1,2,4-oxadiazol-3-yl]-5-methyl-3-pyridyl]-3-(7-tetrahydrofuran-2-ylpyrazolo[1,5-a]pyrimidin-6-yl)urea] has an EC50 of no more than 0.2 µM.
For Cc1cc(NC(=O)Nc2cnc3ccnn3c2C2CCCC2)cnc1-c1noc(CCCCCN2CCN(c3ccc4c(c3)CN(C3CCC(=O)N(C)C3=O)C4=O)CC2)n1 (stereo not drawn) [Compound 64, 1-(7-cyclopentylpyrazolo[1,5-a]pyrimidin-6-yl)-3-[5-methyl-6-[5-[5-[4-[2-(1-methyl-2,6-dioxo-3-piperidyl)-1-oxo-isoindolin-5-yl]piperazin-1-yl]pentyl]-1,2,4-oxadiazol-3-yl]-3-pyridyl]urea], the EC50 was no more than 0.2 µM.
Cc1c(NC(=O)Nc2cnc(-c3noc(CCCCCC(=O)N4CCN(c5ccc6c(c5)CN(C5CCC(=O)NC5=O)C6=O)CC4)n3)c(Cl)c2)cnc2ccnn12 (stereo not drawn) [Compound 65, 1-[5-chloro-6-[5-[6-[4-[2-(2,6-dioxo-3-piperidyl)-1-oxo-isoindolin-5-yl]piperazin-1-yl]-6-oxo-hexyl]-1,2,4-oxadiazol-3-yl]-3-pyridyl]-3-(7-methylpyrazolo[1,5-a]pyrimidin-6-yl)urea] showed an EC50 of 0.2 to 0.5 µM.
In the case of CC(C)c1c(NC(=O)Nc2cnc(-c3noc(CCCCCC(=O)N4CCN(c5ccc6c(c5)CN(C5CCC(=O)NC5=O)C6=O)CC4)n3)c(Cl)c2)cnc2ccnn12 (stereo not drawn) [Compound 66, 1-[5-chloro-6-[5-[6-[4-[2-(2,6-dioxo-3-piperidyl)-1-oxo-isoindolin-5-yl]piperazin-1-yl]-6-oxo-hexyl]-1,2,4-oxadiazol-3-yl]-3-pyridyl]-3-(7-isopropylpyrazolo[1,5-a]pyrimidin-6-yl)urea], the EC50 is reported as no more than 0.2 µM.
In the case of Cc1cc2ncc(NC(=O)Nc3cnc(-c4noc(CCCCCC(=O)N5CCN(c6ccc7c(c6)CN(C6CCC(=O)NC6=O)C7=O)CC5)n4)c(C)c3)c(C3CCCO3)n2n1 (stereo not drawn) [Compound 67, 1-[6-[5-[6-[4-[2-(2,6-dioxo-3-piperidyl)-1-oxo-isoindolin-5-yl]piperazin-1-yl]-6-oxo-hexyl]-1,2,4-oxadiazol-3-yl]-5-methyl-3-pyridyl]-3-(2-methyl-7-tetrahydrofuran-2-yl-pyrazolo[1,5-a]pyrimidin-6-yl)urea], the EC50 is reported as no more than 0.2 µM.
Compound Cc1cc(NC(=O)Nc2cnc3ccnn3c2C2CCCC2)cnc1-c1noc(CCCCCCN2CCN(c3ccc4c(c3)CN(C3CCC(=O)NC3=O)C4=O)CC2)n1 (stereo not drawn) [Compound 68, 1-(7-cyclopentylpyrazolo[1,5-a]pyrimidin-6-yl)-3-[6-[5-[6-[4-[2-(2,6-dioxo-3-piperidyl)-1-oxo-isoindolin-5-yl]piperazin-1-yl]hexyl]-1,2,4-oxadiazol-3-yl]-5-methyl-3-pyridyl]urea] has an EC50 of no more than 0.2 µM.
In the case of CC(C)(C)C(=O)OCN1C(=O)CCC(N2Cc3cc(N4CCN(C(=O)CCCCCc5nc(-c6ncc(NC(=O)Nc7cnc8ccnn8c7C7CCCC7)cc6Cl)no5)CC4)ccc3C2=O)C1=O (stereo not drawn) [Compound 70, [3-[5-[4-[6-[3-[3-chloro-5-[(7-cyclopentylpyrazolo[1,5-a]pyrimidin-6-yl)carbamoylamino]-2-pyridyl]-1,2,4-oxadiazol-5-yl]hexanoyl]piperazin-1-yl]-1-oxo-isoindolin-2-yl]-2,6-dioxo-1-piperidyl]methyl 2,2-dimethylpropanoate], the EC50 is reported as no more than 0.2 µM.
For O=C1CCC(N2Cc3cc(N4CCN(C(=O)CCCc5nc(-c6ncc(NC(=O)Nc7cnc8ccnn8c7C7CCCC7)cc6Cl)no5)CC4)ccc3C2=O)C(=O)N1 (stereo not drawn) [Compound 71, 1-[5-chloro-6-[5-[4-[4-[2-(2,6-dioxo-3-piperidyl)-1-oxo-isoindolin-5-yl]piperazin-1-yl]-4-oxo-butyl]-1,2,4-oxadiazol-3-yl]-3-pyridyl]-3-(7-cyclopentylpyrazolo[1,5-a]pyrimidin-6-yl)urea], the EC50 was no more than 0.2 µM.
For Cc1cc2ncc(NC(=O)Nc3cnc(-c4noc(CCCCCCN5CCN(c6ccc7c(c6)CN(C6CCC(=O)NC6=O)C7=O)CC5)n4)c(C)c3)c(C3CCCO3)n2n1 (stereo not drawn) [Compound 73, 1-[6-[5-[6-[4-[2-(2,6-dioxo-3-piperidyl)-1-oxo-isoindolin-5-yl]piperazin-1-yl]hexyl]-1,2,4-oxadiazol-3-yl]-5-methyl-3-pyridyl]-3-(2-methyl-7-tetrahydrofuran-2-yl-pyrazolo[1,5-a]pyrimidin-6-yl)urea], the EC50 was no more than 0.2 µM.
Work on O=C1CCC(N2Cc3cc(N4CCN(C(=O)CCCCCc5nc(-c6ncc(NC(=O)Nc7cnc8ccnn8c7C7CCCC7)cc6F)no5)CC4)ccc3C2=O)C(=O)N1 (stereo not drawn) [Compound 74, 1-(7-cyclopentylpyrazolo[1,5-a]pyrimidin-6-yl)-3-[6-[5-[6-[4-[2-(2,6-dioxo-3-piperidyl)-1-oxo-isoindolin-5-yl]piperazin-1-yl]-6-oxo-hexyl]-1,2,4-oxadiazol-3-yl]-5-fluoro-3-pyridyl]urea] yielded an EC50 of 0.2 to 0.5 µM.
